The values that follow come from US12570662B2, “Substituted pyrrolo[1,2-b]pyridazines as bifunctional degraders of interleukin-1 receptor-associated kinases” (Nurix Therapeutics, Inc., priority 2021, dated 2026).

The experiment has as its target T1, IRAK4 (Homo sapiens, UniProt Q9NWZ3).
T1 construct: C-terminal HiBiT-tagged Jurkat cells (polyclonal cell line or clone 8D5); endogenous in cells; host or cells: Jurkat cells (polyclonal cell line or clone 8D5), HiBiT-tagged
T1 sequence (Q9NWZ3 1-460): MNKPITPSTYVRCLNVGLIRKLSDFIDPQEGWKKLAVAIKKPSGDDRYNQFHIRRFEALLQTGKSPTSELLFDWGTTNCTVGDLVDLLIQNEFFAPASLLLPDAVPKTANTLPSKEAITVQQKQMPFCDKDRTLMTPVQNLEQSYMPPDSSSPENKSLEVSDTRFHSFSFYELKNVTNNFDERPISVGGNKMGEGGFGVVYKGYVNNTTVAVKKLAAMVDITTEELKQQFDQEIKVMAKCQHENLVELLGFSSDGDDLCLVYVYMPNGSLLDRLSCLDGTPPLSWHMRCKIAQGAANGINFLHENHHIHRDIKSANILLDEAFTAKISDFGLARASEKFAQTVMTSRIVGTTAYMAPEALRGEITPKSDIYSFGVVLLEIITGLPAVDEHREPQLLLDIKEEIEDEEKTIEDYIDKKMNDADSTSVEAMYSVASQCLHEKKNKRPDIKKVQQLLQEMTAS
Briefly: IRAK4 Degradation HiBit Assay. Type of experiment: cell-based. The following applies: C-terminal HiBiT-tagged Jurkat cells, 4 hrs incubation; for DC50: % IRAK4 remaining, four-parameter fit (IC50 used as DC50); for Dmax: from fit of % IRAK4 remaining, read-out: Dmax. The procedure: Compound dilution series (11-point, 3.16-fold dilutions in DMSO, columns 1-11 and 12-22) at 500× the final required concentrations were prepared in Labcyte LDV 384-well plates (cat. no. LP-0200) using a Labcyte Echo 550 Liquid Handler. The 500× solutions ranged from 5 mM to 0.5 μM (final assay concentration range 10 μM to 0.1 nM). Using the Echo, the 500× solutions were stamped into white, 384-well assay plates (Corning, cat. no. 3570) at 60 nL/well. The following assay plate controls were also stamped at 60 nL/well: DMSO in wells E23-P23 (NC, Negative Control, maximum signal), 5 mM solution control compound al in wells A23-D23 and M24-P24 (AC, Active Control, minimum signal/background, 10 μM final assay concentration), control compound al dilution series in wells […] (12-point, 4-fold dilutions). C-terminal HiBiT-tagged Jurkat cells (polyclonal cell line or clone 8D5) were plated at 1×10^6 cells/mL, 30 μL/well (3×10^4 cells/well) in complete RPMI (10% FBS, 1% L-glutamine). Cells were incubated for 4 hrs at 32° C./6% CO2. Compound al has the following structure:
Following incubation, 30 μL of complete Nano-Glo HiBiT Lytic Detection Reagent (Nano-Glo HiBiT Lytic Buffer with 1:50 Nano-Glo HiBiT Lytic Substrate and 1:100 LgBiT Protein; Promega cat. no. N3040) was added. Cells were further incubated for 10 min at room temperature (RT). Luminescence units (LU) were read on an EnVision plate reader (Perkin Elmer, 0.1 sec per well). Percent IRAK4 remaining per sample was calculated as follows: […]
Using Graphpad Prism, % IRAK4 remaining values were plotted as a function of compound concentration. To determine DC50 and Dmax values, resulting curves were fit to the Prism curve-fitting equation “log (inhibitor) vs response-Variable slope (four parameters)” (reported best fit value IC50 used as DC50). Table 1 summarizes the biological data of Compounds of Examples 1-137 and 142-145 obtained from the assays described herein.
In general terms: With HiBiT, luminescence reflects the tagged protein that the partner subunit can reach.

On to `N#Cc1cnn2c(-c3cc(NC4CCOCC4)c(-c4nnc(N5CCN(CCC6CCN(c7ccc(C8CCC(=O)NC8=O)cn7)CC6)CC5)s4)cn3)ccc2c1` (racemic) [Example 14, rac-7-[5-(5-{4-[2-(1-{5-[(3R)-2,6-dioxopiperidin-3-yl]pyridin-2-yl}piperidin-4-yl)ethyl]piperazin-1-yl}-1,3,4-thiadiazol-2-yl)-4-[(oxan-4-yl)amino]pyridin-2-yl]pyrrolo[1,2-b]pyridazine-3-carbonitrile], for which half-maximal degradation (DC50) was put at 70 nM and the Dmax was 81%.
Taken in the same sequence, the figures for `N#Cc1cnn2c(-c3cc(NC4CCOCC4)c(-c4nnc(N5CCN(C(=O)CN6CCN(c7cc(C8CCC(=O)NC8=O)ccn7)CC6)CC5)s4)cn3)ccc2c1` (racemic) [Example 15, rac-7-[5-(5-{4-[2-(4-{4-[(3R)-2,6-dioxopiperidin-3-yl]pyridin-2-yl}piperazin-1-yl)acetyl]piperazin-1-yl}-1,3,4-thiadiazol-2-yl)-4-[(oxan-4-yl)amino]pyridin-2-yl]pyrrolo[1,2-b]pyridazine-3-carbonitrile] were 15 nM and 60%.
On to `N#Cc1cnn2c(-c3cc(NC4CCOCC4)c(-c4nnc(N5CCN(C(=O)C6CCN(c7cc(C8CCC(=O)NC8=O)ccn7)CC6)CC5)s4)cn3)ccc2c1` (racemic) [Example 16, rac-7-(5-{5-[4-(1-{4-[(3R)-2,6-dioxopiperidin-3-yl]pyridin-2-yl}piperidine-4-carbonyl)piperazin-1-yl]-1,3,4-thiadiazol-2-yl}-4-[(oxan-4-yl)amino]pyridin-2-yl)pyrrolo[1,2-b]pyridazine-3-carbonitrile], for which the DC50 amounted to 26 nM and the Dmax came to 62%.
The corresponding values for `N#Cc1cnn2c(-c3cc(NC4CCOCC4)c(-c4nnc(N5CCN(C(=O)[C@H]6CCN(c7ccc([C@@H]8CCC(=O)NC8=O)cn7)C6)CC5)s4)cn3)ccc2c1` (racemic) [Example 17, 7-[5-(5-{4-[(3RS)-1-{5-[(3RS&)-2,6-dioxopiperidin-3-yl]pyridin-2-yl}pyrrolidine-3-carbonyl]piperazin-1-yl}-1,3,4-thiadiazol-2-yl)-4-[(oxan-4-yl)amino]pyridin-2-yl]pyrrolo[1,2-b]pyridazine-3-carbonitrile] are 12 nM and 100%.
Consider `N#Cc1cnn2c(-c3cc(NC4CCOCC4)c(-c4nnc(N5CCN(C(=O)CC6CCN(c7ccc(C8CCC(=O)NC8=O)cn7)CC6)CC5)s4)cn3)ccc2c1` (racemic) [Example 18, rac-7-[5-(5-{4-[2-(1-{5-[(3R)-2,6-dioxopiperidin-3-yl]pyridin-2-yl}piperidin-4-yl)acetyl]piperazin-1-yl}-1,3,4-thiadiazol-2-yl)-4-[(oxan-4-yl)amino]pyridin-2-yl]pyrrolo[1,2-b]pyridazine-3-carbonitrile], for which half-maximal degradation (DC50) was put at 12 nM and the Dmax is 103%.
The corresponding values for `CC(C)Nc1cc(-c2ccc3cc(C#N)cnn23)ncc1-c1nnc(N2CCN(C(=O)CC3CCN(c4ccc(C5CCC(=O)NC5=O)cn4)CC3)CC2)s1` (racemic) [Example 19, rac-7-[5-(5-{4-[2-(1-{5-[(3R)-2,6-dioxopiperidin-3-yl]pyridin-2-yl}piperidin-4-yl)acetyl]piperazin-1-yl}-1,3,4-thiadiazol-2-yl)-4-[(propan-2-yl)amino]pyridin-2-yl]pyrrolo[1,2-b]pyridazine-3-carbonitrile] are 29 nM and 103%.
Take `CC(C)Nc1cc(-c2ccc3cc(C#N)cnn23)ncc1-c1nnc(N2CCN(C(=O)[C@@H]3CCN(c4ccc([C@H]5CCC(=O)NC5=O)cn4)C3)CC2)s1` (racemic) [Example 20, 7-[5-(5-{4-[(3RS)-1-{5-[(3RS&)-2,6-dioxopiperidin-3-yl]pyridin-2-yl}pyrrolidine-3-carbonyl]piperazin-1-yl}-1,3,4-thiadiazol-2-yl)-4-[(propan-2-yl)amino]pyridin-2-yl]pyrrolo[1,2-b]pyridazine-3-carbonitrile]: the DC50 is 20 nM and the Dmax was 98%.
Taken in the same sequence, the figures for `N#Cc1cnn2c(-c3cc(NC4CCOCC4)c(-c4nnc(C56CCC(C(=O)N7CCC(Oc8ccc(C9CCC(=O)NC9=O)cn8)CC7)(CC5)CC6)s4)cn3)ccc2c1` (racemic) [Example 21, rac-7-[5-(5-{4-[4-({5-[(3R)-2,6-dioxopiperidin-3-yl]pyridin-2-yl}oxy)piperidine-1-carbonyl]bicyclo[2.2.2]octan-1-yl}-1,3,4-thiadiazol-2-yl)-4-[(oxan-4-yl)amino]pyridin-2-yl]pyrrolo[1,2-b]pyridazine-3-carbonitrile] were 60 nM and 91%.
In the case of `N#Cc1cnn2c(-c3cc(NC4CCOCC4)c(-c4nnc(C56CCC(C(=O)N7CCN(c8ccc(C9CCC(=O)NC9=O)cn8)CC7)(CC5)CC6)s4)cn3)ccc2c1` (racemic) [Example 22, rac-7-(5-{5-[4-(4-{5-[(3R)-2,6-dioxopiperidin-3-yl]pyridin-2-yl}piperazine-1-carbonyl)bicyclo[2.2.2]octan-1-yl]-1,3,4-thiadiazol-2-yl}-4-[(oxan-4-yl)amino]pyridin-2-yl)pyrrolo[1,2-b]pyridazine-3-carbonitrile], the DC50 came to 23 nM and the Dmax stood at 84%.
The corresponding values for `N#Cc1cnn2c(-c3cc(NC4CCOCC4)c(-c4nnc(C56CCC(CN7CCC(c8ccc(C9CCC(=O)NC9=O)cn8)CC7)(CC5)CC6)s4)cn3)ccc2c1` (racemic) [Example 23, rac-7-[5-(5-{4-[(4-{5-[(3R)-2,6-dioxopiperidin-3-yl]pyridin-2-yl}piperidin-1-yl)methyl]bicyclo[2.2.2]octan-1-yl}-1,3,4-thiadiazol-2-yl)-4-[(oxan-4-yl)amino]pyridin-2-yl]pyrrolo[1,2-b]pyridazine-3-carbonitrile] are 18 nM and 90%.
For `N#Cc1cnn2c(-c3cc(NC4CCOCC4)c(-c4nnc(C56CCC(CN7CCC(Oc8ccc(C9CCC(=O)NC9=O)cn8)CC7)(CC5)CC6)s4)cn3)ccc2c1` (racemic) [Example 24, rac-7-{5-[5-(4-{[4-({5-[(3R)-2,6-dioxopiperidin-3-yl]pyridin-2-yl}oxy)piperidin-1-yl]methyl}bicyclo[2.2.2]octan-1-yl)-1,3,4-thiadiazol-2-yl]-4-[(oxan-4-yl)amino]pyridin-2-yl}pyrrolo[1,2-b]pyridazine-3-carbonitrile], half-maximal degradation (DC50) was put at 77 nM and the Dmax was found to be 83%.
For the molecule `CNc1cc(-c2ccc3cc(C#N)cnn23)ncc1-c1nnc(C23CCC(CN4CCN(c5ccc(C6CCC(=O)NC6=O)cn5)CC4)(CC2)CC3)s1` (racemic) [Example 25, rac-7-[5-(5-{4-[(4-{5-[(3R)-2,6-dioxopiperidin-3-yl]pyridin-2-yl}piperazin-1-yl)methyl]bicyclo[2.2.2]octan-1-yl}-1,3,4-thiadiazol-2-yl)-4-(methylamino)pyridin-2-yl]pyrrolo[1,2-b]pyridazine-3-carbonitrile], half-maximal degradation (DC50) was put at 53 nM and the Dmax was found to be 106%.
The corresponding values for `N#Cc1cnn2c(-c3cc(NC4CCOCC4)c(-c4nnc(C56CCC(CN7CCN(c8ccc(C9CCC(=O)NC9=O)cn8)CC7)(CC5)CC6)s4)cn3)ccc2c1` (racemic) [Example 26, rac-7-[5-(5-{4-[(4-{5-[(3R)-2,6-dioxopiperidin-3-yl]pyridin-2-yl}piperazin-1-yl)methyl]bicyclo[2.2.2]octan-1-yl}-1,3,4-thiadiazol-2-yl)-4-[(oxan-4-yl)amino]pyridin-2-yl]pyrrolo[1,2-b]pyridazine-3-carbonitrile] are 120 nM and 80%.

Usually DC50 stands for the concentration at which degradation of the target reaches its halfway point. Low values mean a more potent degrader, high ones a less potent degrader. One may read the Dmax as the greatest extent of degradation seen.
